Reference: patent publication US20080234280A1, “Use of Mc4 Receptor Agonist Compounds” (priority 2005, published 2008)

Test system: Female beagle dogs
Assay: dog urethral pressure profilometry (Test A)
Format: in vivo
Conditions: anaesthetised female beagle dog; for Mean peak urethral pressure (PUP): i.v. infusion over 15 minutes in saline; for PUP increase vs. baseline: i.v. infusion over 15 minutes, baseline (vehicle) PUP 30 mmHg
Experimental: Female beagle dogs (10-15 kg) are anaesthetised with sodium pentobarbitone (60 mg/mL solution) administered intravenously (IV) at 0.5 ml/kg via the right cephalic vein. Immediately following induction of anaesthesia the dog is intubated and respiration supported by artificial ventilation with oxygen. End tidal CO2 is monitored continuously, using a Datex CO2/O2 monitor and maintained between 4.5 and 4.8% and body temperature maintained between 37° C. and 38° C. An incision is made in the right medial thigh and a polyethylene catheter (6F) inserted into the right femoral vein for administration of compounds and fluid maintenance; immediately venous access is achieved a bolus IV dose of α-chloralose (1% w/v) is administered at 35 mg/kg. A polyethylene catheter (4F) is inserted into the right femoral artery for blood sampling. An incision is made in the right foreleg and the brachial vein and artery isolated, maintenance of anaesthesia is achieved with α-chloralose/borax administered IV at the rate of 10 mg/kg/h via a polyethylene catheter (6F) inserted into the right brachial vein. A laparotomy is performed from the umbilicus to the top of the pubic symphysis via the midline to expose the peritoneum in order to expose the bladder. Both ureters are cannulated towards the kidneys with polyethylene catheters (6F) and urine collected externally; the bladder is catheterised through the dome with a polyethylene catheter (6F), which is in turn connected to a pressure transducer. In order to maintain constant bladder pressure at 10-15 mmHg, urine is removed and ambient temperature saline infused into the bladder. Immediately following the completion of the surgical procedures a further bolus dose of α-chloralose/borax solution is administered IV at 35 mg/kg and the animal allowed to stabilise for a period period ca. 1 hr, during which time haemodynamic and urological parameters were monitored.
Urethral tone (peak urethral pressure (PUP), functional urethral length (FUL) and closing pressure (CP)) is assessed with the aid of an 8F Millar pressure transducer (Millar Instruments, Texas, US) inserted into the bladder through the external meatus. The urethral Millar pressure transducer is then retracted along the length of the urethra (urethral pull through) at a rate of 1 cm/min enabling the determination of PUP, FUL and CP. Urethral pull throughs are repeated every 6 min until at least 4 reproducible urethral profiles are observed. Subsequently increasing concentrations of test compound or vehicle is injected intravenously utilising either a bolus dose or constant infusion and at least a further 4 urethral pull throughs carried out at each concentration investigated. Changes in the PUP, FUL or CP are indicative of compound activity on lower urinary tract function. • Investigation of bladder capacity and external urethral sphincter (EUS) function in the spontaneously hypertensive rat:
was tested in the dog urethral pressure model (Test A) described above. The compound was dissolved in saline (vehicle) and administered by i.v. infusion over a period of 15 minutes, with at least 5 urethral pressure measurements being taken at each dose level during infusion and for 15 minutes post-infusion.

CO[C@H]1CN(C(=O)[C@@H]2CN(c3cccnn3)C[C@H]2c2ccc(F)cc2F)CC[C@]1(OC)c1ccccc1 [Example 8]
Mean peak urethral pressure (PUP) (dose 1.0 mg/kg): 32 mmHg | Mean peak urethral pressure (PUP) (dose 2.0 mg/kg): 36 mmHg | Mean peak urethral pressure (PUP) (dose 3.0 mg/kg): 35 mmHg | PUP increase vs. baseline (dose 1.0 mg/kg): 7% | PUP increase vs. baseline (dose 2.0 mg/kg): 20% | PUP increase vs. baseline (dose 3.0 mg/kg): 17%
